# Source: patent publication US20230286948A1 (HUYABIO International, LLC, priority 2022, published 2023)
# Tested on: MV-411 cells
# Assay: Anti-proliferative activity against MV-411 leukemia cells (CellTiterGlo viability, 72 h)
# Type: cell-based
# Details: Homo sapiens, MV4-11, 72 h, MV-411 human acute monocytic leukemia cells, a second value in parentheses is a further determination
# Description: Procedure: MV-411 cells were seeded into 384 well plates at 2000 cells/well density in 50 μL total volume, according to plate map and were allowed to naturally sediment by waiting about 30 min on a Clean Bench. Next, plated cells were centrifuged for 1 min at 1000 rpm and the excess cells were transferred into the flasks for further culture. Cells in the assay plates were incubated (at least 4 hrs.) at 37° C., 5% CO2 followed by adding the compounds as the plate map indicated. The tests were performed in duplicates with treatment of compounds at 10 pts 3-fold titration in 384 well plates. Taxol was used as positive control while DMSO as negative control. To rule out edge effect, the wells on the edge were not seeded and therefore one 384 well plate holds 13 compounds. Cells viability was measured 72h after incubation with compounds using CellTiterGlo (promega) viability assay according to manufacturer's instruction to check the ATP production in each well.
# Experiments on anti-proliferative activity against leukemia cells were conducted with some of the compounds of the invention.
row,Structure (SMILES),GI50 [µM]
1,C[C@@H]1CN(c2ccc(-n3cc(C(=O)NCCCN4CCOCC4)nn3)cc2NC(=O)c2cnc(Cl)cc2C(F)(F)F)C[C@H](C)N1C [Compound 1],1.38
2,C[C@@H]1CN(c2ccc(-n3cc(C(=O)NCCCN4CCOCC4)nn3)cc2NC(=O)c2c[nH]c(=O)cc2C(F)(F)F)C[C@H](C)N1C [Compound 2],> 200
3,CN1CCN(c2ccc(-n3cc(C(=O)NCCCN4CCOCC4)nn3)cc2NC(=O)c2c[nH]c(=O)cc2C(F)(F)F)CC1 [Compound 4],> 200
4,C[C@@H]1CN(c2cc(F)c(-n3cc(C(=O)NCCCN4CCOCC4)nn3)cc2NC(=O)c2cnc(Cl)cc2C(F)(F)F)C[C@H](C)N1C [Compound 5],7.26
5,C[C@@H]1CN(c2cc(F)c(-n3cc(C(=O)NCCCN4CCOCC4)nn3)cc2NC(=O)c2c[nH]c(=O)cc2C(F)(F)F)C[C@H](C)N1C [Compound 6],> 200
6,CN1CCN(c2cc(F)c(-n3cc(C(=O)NCCCN4CCOCC4)nn3)cc2NC(=O)c2c[nH]c(=O)cc2C(F)(F)F)CC1 [Compound 8],> 200
7,C[C@H]1CN(c2ccc(-n3cc(C(=O)NCCCN4CCOCC4)nn3)cc2NC(=O)c2c[nH]c(=O)cc2C(F)(F)F)CCN1C [Compound 10],> 200
8,CN1CCN(c2ccc(-n3cc(C(=O)NCCCN4CCOCC4)nn3)cc2NC(=O)c2cnc(F)cc2C(F)(F)F)CC1 [Compound 11],2.14
9,Cc1cc(C(F)(F)F)c(C(=O)Nc2cc(-n3cc(C(=O)NCCCN4CCOCC4)nn3)ccc2N2CCN(C)CC2)cn1 [Compound 12],60.1
10,CN1CCN(c2ccc(-n3cc(C(=O)NCCCN4CCOCC4)nn3)cc2NC(=O)c2cnc(C#N)cc2C(F)(F)F)CC1 [Compound 13],21.8
11,CSc1cc(C(F)(F)F)c(C(=O)Nc2cc(-n3cc(C(=O)NCCCN4CCOCC4)nn3)ccc2N2CCN(C)CC2)cn1 [Compound 14],25.3
12,CN1CCN(c2ccc(-n3cc(C(=O)NCCCN4CCOCC4)nn3)cc2NC(=O)c2cnc(S(C)(=O)=O)cc2C(F)(F)F)CC1 [Compound 15],> 237
13,COc1cc(C(F)(F)F)c(C(=O)Nc2cc(-n3cc(C(=O)NCCCN4CCOCC4)nn3)ccc2N2CCN(C)CC2)cn1 [Compound 16],51.9
14,CN1CCN(c2ccc(-n3cc(C(=O)NCCCN4CCOCC4)nn3)cc2NC(=O)c2cnc(N)cc2C(F)(F)F)CC1 [Compound 18],42.7
15,CN1CCN(c2ccc(-n3cc(C(=O)NCCCN4CCOCC4)nn3)cc2NC(=O)c2cnc(Cl)cc2Cl)CC1 [Compound 19],0.91
16,CN1CCN(c2ccc(-n3cc(C(=O)NCCCN4CCOCC4)nn3)cc2NC(=O)c2cnc(C(F)(F)F)cc2Cl)CC1 [Compound 20],2.86
17,Cc1c(Cl)ncc(C(=O)Nc2cc(-n3cc(C(=O)NCCCN4CCOCC4)nn3)ccc2N2CCN(C)CC2)c1Cl [Compound 21],2.5
18,CN1CCN(c2ccc(-n3cc(C(=O)NCCCN4CCOCC4)nn3)cc2NC(=O)c2cnc(C(F)F)cc2Cl)CC1 [Compound 22],39.7
19,CN1CCN(c2ccc(-n3cc(C(=O)NCCCN4CCOCC4)nn3)cc2NC(=O)c2cnc(C#N)cc2N(C)C)CC1 [Compound 23],196
20,Cc1cc(N)ncc1C(=O)Nc1cc(-n2cc(C(=O)NCCCN3CCOCC3)nn2)ccc1N1CCN(C)CC1 [Compound 24],> 200
21,Cc1cc(F)ncc1C(=O)Nc1cc(-n2cc(C(=O)NCCCN3CCOCC3)nn2)ccc1N1CCN(C)CC1 [Compound 25],146
22,Cc1ncc(C(=O)Nc2cc(-n3cc(C(=O)NCCCN4CCOCC4)nn3)ccc2N2CCN(C)CC2)c(C(F)(F)F)n1 [Compound 26],75.2
23,CSc1ncc(C(=O)Nc2cc(-n3cc(C(=O)NCCCN4CCOCC4)nn3)ccc2N2CCN(C)CC2)c(C(F)(F)F)n1 [Compound 27],18.5
24,CN1CCN(c2ccc(-n3cc(C(=O)NCCCN4CCOCC4)nn3)cc2NC(=O)c2cnc([S+](C)[O-])nc2C(F)(F)F)CC1 (stereo not shown) [Compound 28],> 200
25,CCOc1ncc(C(=O)Nc2cc(-n3cc(C(=O)NCCCN4CCOCC4)nn3)ccc2N2CCN(C)CC2)c(C(F)(F)F)n1 [Compound 29],18.4
26,COc1nc(SC)ncc1C(=O)Nc1cc(-n2cc(C(=O)NCCCN3CCOCC3)nn2)ccc1N1CCN(C)CC1 [Compound 30],12.2

row,Structure (SMILES),GI50 [µM]
1,Cc1nc(C(F)(F)F)ncc1C(=O)Nc1cc(-n2cc(C(=O)NCCCN3CCOCC3)nn2)ccc1N1CCN(C)CC1 [Compound 31],106
2,CN1CCN(c2ccc(-n3cc(C(=O)NCCCN4CCOCC4)nn3)cc2NC(=O)c2nnc(Cl)cc2Cl)CC1 [Compound 32],1.24
3,CN1CCN(c2ccc(-n3cc(C(=O)NCCCN4CCOCC4)nn3)cc2NC(=O)c2nnc(Cl)cc2N)CC1 [Compound 33],35.3
4,CN1CCN(c2ccc(-n3cc(C(=O)NCCCN4CCOCC4)nn3)cc2NC(=O)c2ncc(Cl)nc2Cl)CC1 [Compound 34],0.37
5,COc1cnc(C(=O)Nc2cc(-n3cc(C(=O)NCCCN4CCOCC4)nn3)ccc2N2CCN(C)CC2)c(Cl)n1 [Compound 35],2.42
6,COc1cnc(C(=O)Nc2cc(-n3cc(C(=O)NCCCN4CCOCC4)nn3)ccc2N2CCN(C)CC2)c(OC)n1 [Compound 36],28.2
7,CN1CCN(c2ccc(-n3cc(C(=O)NCCCN4CCOCC4)nn3)cc2NC(=O)c2ccc(Cl)nc2C(F)(F)F)CC1 [Compound 37],44.3
8,COc1ccc(C(=O)Nc2cc(-n3cc(C(=O)NCCCN4CCOCC4)nn3)ccc2N2CCN(C)CC2)c(C(F)(F)F)n1 [Compound 38],67.9
9,CN1CCN(c2ccc(-n3cc(C(=O)NCCCN4CCOCC4)nn3)cc2NC(=O)c2ccc(C#N)nc2C(F)(F)F)CC1 [Compound 39],20.2
10,CN1CCN(c2ccc(-n3cc(C(=O)NCCCN4CCOCC4)nn3)cc2NC(=O)c2ccc(C(N)=O)nc2C(F)(F)F)CC1 [Compound 40],> 200
11,CN1CCN(c2ccc(-n3cc(C(=O)NCCCN4CCOCC4)nn3)cc2NC(=O)c2ccc(N)nc2C(F)(F)F)CC1 [Compound 41],108
12,COc1ccc(CNc2ccc(C(=O)Nc3cc(-n4cc(C(=O)NCCCN5CCOCC5)nn4)ccc3N3CCN(C)CC3)c(C(F)(F)F)n2)cc1 [Compound 42],3.17
13,CSc1ccc(C(=O)Nc2cc(-n3cc(C(=O)NCCCN4CCOCC4)nn3)ccc2N2CCN(C)CC2)c(C(F)(F)F)n1 [Compound 43],19.9
14,CN1CCN(c2ccc(-n3cc(C(=O)NCCCN4CCOCC4)nn3)cc2NC(=O)c2ccc(S(C)(=O)=O)nc2C(F)(F)F)CC1 [Compound 44],49.9
15,CN1CCN(c2ccc(-n3cc(C(=O)NCCCN4CCOCC4)nn3)cc2NC(=O)c2ncc(N)cn2)CC1 [Compound 45],11.2
16,CN1CCN(c2ccc(-n3cc(C(=O)NCCCN4CCOCC4)nn3)cc2NC(=O)c2ccc(Cl)cc2C(F)(F)F)CC1 [Compound 46],22.4
17,Cc1cc(Cl)c(C(=O)Nc2cc(-n3cc(C(=O)NCCCN4CCOCC4)nn3)ccc2N2CCN(C)CC2)cc1N [Compound 49],27.7
18,CCN(CC)C(=O)c1cn(-c2cc(NC(=O)c3cnc(Cl)cc3C(F)(F)F)c(N3C[C@@H](C)N(C)[C@@H](C)C3)cc2F)nn1 [Compound 50],0.49
19,C[C@@H]1CN(c2cc(F)c(-n3cc(C(=O)N4CCN(C)CC4)nn3)cc2NC(=O)c2cnc(Cl)cc2C(F)(F)F)C[C@H](C)N1C [Compound 51],1.14
20,C[C@@H]1CN(c2cc(F)c(-n3cc(C(=O)NC4CCN(C)CC4)nn3)cc2NC(=O)c2cnc(Cl)cc2C(F)(F)F)C[C@H](C)N1C [Compound 52],1.22
21,CCN(CC)C(=O)c1cn(-c2cc(NC(=O)c3cnc(F)cc3C(F)(F)F)c(N3C[C@@H](C)N(C)[C@@H](C)C3)cc2F)nn1 [Compound 53],0.9
22,COc1cc(C(F)(F)F)c(C(=O)Nc2cc(-n3cc(C(=O)NC4CCN(C)CC4)nn3)c(F)cc2N2C[C@@H](C)N(C)[C@@H](C)C2)cn1 [Compound 54],14.3
23,COc1cc(C(F)(F)F)c(C(=O)Nc2cc(-n3cc(C(=O)NCCCN4CCOCC4)nn3)c(F)cc2N2C[C@@H](C)N(C)[C@@H](C)C2)cn1 [Compound 55],27.8
24,CCN(CC)C(=O)c1cn(-c2cc(NC(=O)c3cnc(Cl)cc3Cl)c(N3C[C@@H](C)N(C)[C@@H](C)C3)cc2F)nn1 [Compound 56],1.17
25,C[C@@H]1CN(c2cc(F)c(-n3cc(C(=O)N4CCN(C)CC4)nn3)cc2NC(=O)c2cnc(Cl)cc2Cl)C[C@H](C)N1C [Compound 57],0.74
26,C[C@@H]1CN(c2cc(F)c(-n3cc(C(=O)NC4CCN(C)CC4)nn3)cc2NC(=O)c2cnc(C(F)(F)F)cc2Cl)C[C@H](C)N1C [Compound 58],0.68

# Same assay, conditions: MV-411 human acute monocytic leukemia cells, a second value in parentheses is a further determination
row,Structure (SMILES),GI50 [µM]
1,CN1CCN(c2ccc(-n3cc(C(=O)NCCCN4CCOCC4)nn3)cc2NC(=O)c2cnc(F)cc2C(F)(F)F)CC1 [Compound 11],2.01
2,Cc1cc(C(F)(F)F)c(C(=O)Nc2cc(-n3cc(C(=O)NCCCN4CCOCC4)nn3)ccc2N2CCN(C)CC2)cn1 [Compound 12],88.8
3,CN1CCN(c2ccc(-n3cc(C(=O)NCCCN4CCOCC4)nn3)cc2NC(=O)c2cnc(C#N)cc2C(F)(F)F)CC1 [Compound 13],23.7
4,CSc1cc(C(F)(F)F)c(C(=O)Nc2cc(-n3cc(C(=O)NCCCN4CCOCC4)nn3)ccc2N2CCN(C)CC2)cn1 [Compound 14],21.4
5,CN1CCN(c2ccc(-n3cc(C(=O)NCCCN4CCOCC4)nn3)cc2NC(=O)c2cnc(Cl)cc2Cl)CC1 [Compound 19],0.94
6,CN1CCN(c2ccc(-n3cc(C(=O)NCCCN4CCOCC4)nn3)cc2NC(=O)c2cnc(C(F)(F)F)cc2Cl)CC1 [Compound 20],3.19
7,Cc1c(Cl)ncc(C(=O)Nc2cc(-n3cc(C(=O)NCCCN4CCOCC4)nn3)ccc2N2CCN(C)CC2)c1Cl [Compound 21],2.33
8,Cc1ncc(C(=O)Nc2cc(-n3cc(C(=O)NCCCN4CCOCC4)nn3)ccc2N2CCN(C)CC2)c(C(F)(F)F)n1 [Compound 26],61.7
9,CN1CCN(c2ccc(-n3cc(C(=O)NCCCN4CCOCC4)nn3)cc2NC(=O)c2ccc(Cl)nc2C(F)(F)F)CC1 [Compound 37],46.2
